Measured values taken from ChEMBL document CHEMBL3132769, “Fragment growing to retain or alter the selectivity of anchored kinase hinge-binding fragments” (Medchemcomm, 2014).

Key:
[1] = biological target: T1, Calcium/calmodulin-dependent protein kinase type IV (Homo sapiens) (UniProt Q16566); assay: Inhibition of human full length CAMK4 expressed in baculovirus assessed as substrate phosphorylation using fluorescence-labelled peptides as substrate at 9 uM after 90 mins by microfluidic peptide phosphorylation assay
T1 sequence (whole entry): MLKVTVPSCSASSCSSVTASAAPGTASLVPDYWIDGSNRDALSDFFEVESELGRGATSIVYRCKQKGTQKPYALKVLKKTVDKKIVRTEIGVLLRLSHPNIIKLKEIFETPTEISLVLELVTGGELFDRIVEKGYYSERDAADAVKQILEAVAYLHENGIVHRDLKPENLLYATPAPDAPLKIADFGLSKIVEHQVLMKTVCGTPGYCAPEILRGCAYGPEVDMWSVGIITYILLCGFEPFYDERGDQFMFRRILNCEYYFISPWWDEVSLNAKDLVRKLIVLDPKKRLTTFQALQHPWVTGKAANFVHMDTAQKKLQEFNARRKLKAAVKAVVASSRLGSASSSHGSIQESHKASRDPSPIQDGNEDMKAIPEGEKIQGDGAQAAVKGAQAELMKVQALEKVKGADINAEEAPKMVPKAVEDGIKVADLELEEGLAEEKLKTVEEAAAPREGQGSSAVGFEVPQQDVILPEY

[2] = biological target: Hepatocyte growth factor receptor (Homo sapiens) (UniProt P08581); assay: Inhibition of human MET cytoplasmic domain expressed in baculovirus assessed as substrate phosphorylation using fluorescence-labelled peptides as substrate at 9 uM after 90 mins by microfluidic peptide phosphorylation assay
[3] = biological target: Ribosomal protein S6 kinase alpha-4 (Homo sapiens) (UniProt O75676); assay: Inhibition of human full length MSK2 expressed in baculovirus assessed as substrate phosphorylation using fluorescence-labelled peptides as substrate at 95 uM after 90 mins by microfluidic peptide phosphorylation assay
[4] = biological target: RAC-alpha serine/threonine-protein kinase (Homo sapiens) (UniProt P31749); conditions: 0.06 uM
Description: Inhibition of human AKT1 catalytic domain expressed in baculovirus assessed as substrate phosphorylation using fluorescence-labelled peptides as substrate at 0.06 uM after 90 mins by microfluidic peptide phosphorylation assay

[5] = biological target: Casein kinase I isoform delta (Homo sapiens) (UniProt P48730); assay: Inhibition of human CK1D catalytic domain expressed in Escherichia coli cell assessed as substrate phosphorylation using fluorescence-labelled peptides as substrate at 0.1 uM after 90 mins by microfluidic peptide phosphorylation assay
[6] = biological target: Calcium/calmodulin-dependent protein kinase type II subunit beta (Homo sapiens) (UniProt Q13554); conditions: 0.1 uM
Description: Inhibition of human CAMK2 beta catalytic domain expressed in baculovirus assessed as substrate phosphorylation using fluorescence-labelled peptides as substrate at 0.1 uM after 90 mins by microfluidic peptide phosphorylation assay

[7] = biological target: Tyrosine-protein kinase Lck (Homo sapiens) (UniProt P06239); assay: Inhibition of human full length LCK expressed in baculovirus assessed as substrate phosphorylation using fluorescence-labelled peptides as substrate at […] after 90 mins by microfluidic peptide phosphorylation assay
[8] = biological target: T2, Mitogen-activated protein kinase 12 (Homo sapiens) (UniProt P53778); assay: Inhibition of human full length p38 gamma expressed in Escherichia coli cell assessed as substrate phosphorylation using fluorescence-labelled peptides as substrate at 420 uM after 90 mins by microfluidic peptide phosphorylation assay
T2 sequence (whole entry): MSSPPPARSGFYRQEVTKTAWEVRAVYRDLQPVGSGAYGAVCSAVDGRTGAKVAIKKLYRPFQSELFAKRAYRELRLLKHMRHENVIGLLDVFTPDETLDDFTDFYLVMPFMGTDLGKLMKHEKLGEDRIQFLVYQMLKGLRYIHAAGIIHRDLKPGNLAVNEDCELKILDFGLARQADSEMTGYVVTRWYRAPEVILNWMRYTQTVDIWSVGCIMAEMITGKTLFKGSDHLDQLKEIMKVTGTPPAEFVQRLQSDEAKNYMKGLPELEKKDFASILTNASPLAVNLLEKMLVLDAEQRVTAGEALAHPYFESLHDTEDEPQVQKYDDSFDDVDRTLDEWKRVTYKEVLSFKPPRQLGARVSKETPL

[9] = biological target: T3, Aurora kinase C (Homo sapiens) (UniProt Q9UQB9); assay: Inhibition of human full length AurC expressed in baculovirus assessed as substrate phosphorylation using fluorescence-labelled peptides as substrate at 420 uM after 90 mins by microfluidic peptide phosphorylation assay
T3 sequence (whole entry): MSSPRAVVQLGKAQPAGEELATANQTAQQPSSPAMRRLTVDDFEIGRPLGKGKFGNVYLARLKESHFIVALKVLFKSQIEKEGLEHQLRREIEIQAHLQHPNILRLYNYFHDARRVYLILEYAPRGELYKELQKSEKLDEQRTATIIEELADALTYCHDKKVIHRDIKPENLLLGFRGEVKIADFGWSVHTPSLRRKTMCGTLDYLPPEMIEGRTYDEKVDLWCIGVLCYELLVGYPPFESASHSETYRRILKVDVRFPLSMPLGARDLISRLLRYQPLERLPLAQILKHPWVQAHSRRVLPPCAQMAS

[10] = biological target: Tyrosine-protein kinase Lck (Homo sapiens) (UniProt P06239); assay: Inhibition of human full length LCK expressed in baculovirus assessed as substrate phosphorylation using fluorescence-labelled peptides as substrate at 70 uM after 90 mins by microfluidic peptide phosphorylation assay
[11] = biological target: MAP/microtubule affinity-regulating kinase 3 (Homo sapiens) (UniProt P27448); assay: Inhibition of human full length c-TAK1 expressed in Escherichia coli cell assessed as substrate phosphorylation using fluorescence-labelled peptides as substrate at 70 uM after 90 mins by microfluidic peptide phosphorylation assay
[12] = biological target: MAP kinase-activated protein kinase 2 (Homo sapiens) (UniProt P49137); assay: Inhibition of human full length MAPKAPK2 expressed in baculovirus assessed as substrate phosphorylation using fluorescence-labelled peptides as substrate at 0.2 uM after 90 mins by microfluidic peptide phosphorylation assay
[13] = system: Tyrosine-protein kinase ABL1 (Homo sapiens), P00519 [Q252H]; assay: Inhibition of human truncated ABL Q252H mutant expressed in baculovirus assessed as substrate phosphorylation using fluorescence-labelled peptides as substrate at 2 uM after 90 mins by microfluidic peptide phosphorylation assay
[14] = biological target: Serine/threonine-protein kinase MARK1 (Homo sapiens) (UniProt Q9P0L2); assay: Inhibition of human full length MARK1 expressed in baculovirus assessed as substrate phosphorylation using fluorescence-labelled peptides as substrate at 2 uM after 90 mins by microfluidic peptide phosphorylation assay
[15] = biological target: RAF proto-oncogene serine/threonine-protein kinase (Homo sapiens) (UniProt P04049); assay: Inhibition of human truncated c-Raf expressed in baculovirus assessed as substrate phosphorylation using fluorescence-labelled peptides as substrate at 8 uM after 90 mins by microfluidic peptide phosphorylation assay
[16] = biological target: MAP kinase p38 (Homo sapiens) (UniProt O15264+Q15759+Q16539+P53778); assay: Inhibition of human full length p38 beta2 expressed in Escherichia coli cell assessed as substrate phosphorylation using fluorescence-labelled peptides as substrate at 1000 uM after 90 mins by microfluidic peptide phosphorylation assay

Sequence of Tyrosine-protein kinase Lck (Homo sapiens) (P06239 2-509 limits assumed): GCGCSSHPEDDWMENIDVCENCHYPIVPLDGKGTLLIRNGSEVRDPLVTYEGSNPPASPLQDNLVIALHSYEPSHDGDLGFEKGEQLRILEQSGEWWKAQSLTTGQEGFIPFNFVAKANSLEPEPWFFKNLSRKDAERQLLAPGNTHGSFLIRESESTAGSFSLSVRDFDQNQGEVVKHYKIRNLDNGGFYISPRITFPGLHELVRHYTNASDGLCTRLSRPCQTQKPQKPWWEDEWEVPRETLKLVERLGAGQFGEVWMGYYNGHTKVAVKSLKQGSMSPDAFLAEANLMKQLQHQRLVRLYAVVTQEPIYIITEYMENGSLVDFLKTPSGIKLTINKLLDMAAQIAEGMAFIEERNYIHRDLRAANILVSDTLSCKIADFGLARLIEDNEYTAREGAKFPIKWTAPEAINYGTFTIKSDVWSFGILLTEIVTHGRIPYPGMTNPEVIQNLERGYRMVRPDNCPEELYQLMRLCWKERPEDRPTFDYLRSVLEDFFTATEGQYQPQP
Sequence of MAP/microtubule affinity-regulating kinase 3 (Homo sapiens) (P27448 whole entry, looked up): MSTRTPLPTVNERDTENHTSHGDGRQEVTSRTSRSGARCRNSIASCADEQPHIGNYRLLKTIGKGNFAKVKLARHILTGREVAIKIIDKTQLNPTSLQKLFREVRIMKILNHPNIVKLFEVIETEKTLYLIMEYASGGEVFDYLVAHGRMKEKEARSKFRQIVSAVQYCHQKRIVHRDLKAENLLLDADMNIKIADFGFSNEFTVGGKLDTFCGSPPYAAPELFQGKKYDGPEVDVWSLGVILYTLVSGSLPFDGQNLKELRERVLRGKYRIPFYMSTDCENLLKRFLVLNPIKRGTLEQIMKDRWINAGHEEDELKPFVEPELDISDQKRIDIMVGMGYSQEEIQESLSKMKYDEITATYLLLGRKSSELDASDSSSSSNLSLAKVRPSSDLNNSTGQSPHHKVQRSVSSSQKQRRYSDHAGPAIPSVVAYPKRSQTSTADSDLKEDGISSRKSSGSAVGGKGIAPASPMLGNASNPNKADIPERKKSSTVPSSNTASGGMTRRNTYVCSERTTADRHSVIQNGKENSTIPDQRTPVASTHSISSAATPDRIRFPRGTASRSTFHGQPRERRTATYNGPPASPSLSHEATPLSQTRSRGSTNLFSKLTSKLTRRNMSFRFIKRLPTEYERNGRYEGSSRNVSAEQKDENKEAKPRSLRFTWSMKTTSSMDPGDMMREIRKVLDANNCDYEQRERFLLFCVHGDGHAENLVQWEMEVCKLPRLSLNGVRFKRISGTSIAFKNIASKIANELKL
Sequence of Calcium/calmodulin-dependent protein kinase type II subunit beta (Homo sapiens) (Q13554 whole entry): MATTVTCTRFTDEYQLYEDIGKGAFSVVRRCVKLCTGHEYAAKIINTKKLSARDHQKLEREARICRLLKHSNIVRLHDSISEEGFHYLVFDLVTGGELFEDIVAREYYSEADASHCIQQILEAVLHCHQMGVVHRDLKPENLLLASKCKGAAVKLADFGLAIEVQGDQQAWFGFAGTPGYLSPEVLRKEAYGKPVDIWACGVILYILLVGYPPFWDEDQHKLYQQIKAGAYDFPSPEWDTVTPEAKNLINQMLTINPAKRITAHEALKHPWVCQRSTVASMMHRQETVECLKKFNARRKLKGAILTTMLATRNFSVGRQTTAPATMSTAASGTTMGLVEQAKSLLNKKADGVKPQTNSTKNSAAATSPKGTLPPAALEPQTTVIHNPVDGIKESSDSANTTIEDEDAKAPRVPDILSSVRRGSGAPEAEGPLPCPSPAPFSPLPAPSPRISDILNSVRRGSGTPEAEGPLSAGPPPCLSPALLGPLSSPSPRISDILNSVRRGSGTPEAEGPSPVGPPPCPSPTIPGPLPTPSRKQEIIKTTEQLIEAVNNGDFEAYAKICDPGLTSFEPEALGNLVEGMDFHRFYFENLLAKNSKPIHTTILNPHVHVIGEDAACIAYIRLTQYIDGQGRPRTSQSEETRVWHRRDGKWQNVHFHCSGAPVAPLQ
Sequence of Ribosomal protein S6 kinase alpha-4 (Homo sapiens) (O75676 whole entry, looked up): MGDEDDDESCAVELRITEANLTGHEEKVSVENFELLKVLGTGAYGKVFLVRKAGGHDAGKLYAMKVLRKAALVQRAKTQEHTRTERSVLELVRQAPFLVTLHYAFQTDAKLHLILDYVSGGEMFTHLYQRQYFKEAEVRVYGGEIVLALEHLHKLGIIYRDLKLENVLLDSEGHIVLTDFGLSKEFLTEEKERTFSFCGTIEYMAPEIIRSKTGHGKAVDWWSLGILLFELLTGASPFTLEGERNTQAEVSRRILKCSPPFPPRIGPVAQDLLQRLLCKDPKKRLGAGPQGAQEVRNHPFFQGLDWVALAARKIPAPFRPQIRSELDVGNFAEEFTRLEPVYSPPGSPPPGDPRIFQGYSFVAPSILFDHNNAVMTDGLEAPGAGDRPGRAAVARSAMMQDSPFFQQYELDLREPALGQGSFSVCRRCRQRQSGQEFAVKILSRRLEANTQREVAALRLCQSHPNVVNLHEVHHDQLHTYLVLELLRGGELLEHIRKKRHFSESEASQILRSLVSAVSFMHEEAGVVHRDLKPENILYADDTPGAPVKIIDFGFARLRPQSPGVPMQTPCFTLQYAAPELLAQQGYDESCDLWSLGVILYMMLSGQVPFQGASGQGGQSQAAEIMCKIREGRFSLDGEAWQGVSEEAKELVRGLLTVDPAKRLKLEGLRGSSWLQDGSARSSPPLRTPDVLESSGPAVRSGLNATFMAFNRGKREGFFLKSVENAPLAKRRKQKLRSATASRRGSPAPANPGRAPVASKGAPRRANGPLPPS
Sequence of RAC-alpha serine/threonine-protein kinase (Homo sapiens) (P31749 whole entry, the tested form may be a part, canonical isoform): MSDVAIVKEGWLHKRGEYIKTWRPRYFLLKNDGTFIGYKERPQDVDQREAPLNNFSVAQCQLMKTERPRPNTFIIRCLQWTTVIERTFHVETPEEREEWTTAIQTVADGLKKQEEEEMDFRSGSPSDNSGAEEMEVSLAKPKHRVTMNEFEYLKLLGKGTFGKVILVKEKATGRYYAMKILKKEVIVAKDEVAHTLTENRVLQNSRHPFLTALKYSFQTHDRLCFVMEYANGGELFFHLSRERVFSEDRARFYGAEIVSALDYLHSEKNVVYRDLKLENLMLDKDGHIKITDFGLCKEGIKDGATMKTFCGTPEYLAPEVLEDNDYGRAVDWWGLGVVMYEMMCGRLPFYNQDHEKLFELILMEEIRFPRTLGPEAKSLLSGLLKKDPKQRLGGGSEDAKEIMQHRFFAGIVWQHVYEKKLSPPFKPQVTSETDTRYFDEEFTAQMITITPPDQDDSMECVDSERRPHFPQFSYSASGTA
Sequence of MAP kinase-activated protein kinase 2 (Homo sapiens) (P49137 whole entry, looked up, the tested form may be a part): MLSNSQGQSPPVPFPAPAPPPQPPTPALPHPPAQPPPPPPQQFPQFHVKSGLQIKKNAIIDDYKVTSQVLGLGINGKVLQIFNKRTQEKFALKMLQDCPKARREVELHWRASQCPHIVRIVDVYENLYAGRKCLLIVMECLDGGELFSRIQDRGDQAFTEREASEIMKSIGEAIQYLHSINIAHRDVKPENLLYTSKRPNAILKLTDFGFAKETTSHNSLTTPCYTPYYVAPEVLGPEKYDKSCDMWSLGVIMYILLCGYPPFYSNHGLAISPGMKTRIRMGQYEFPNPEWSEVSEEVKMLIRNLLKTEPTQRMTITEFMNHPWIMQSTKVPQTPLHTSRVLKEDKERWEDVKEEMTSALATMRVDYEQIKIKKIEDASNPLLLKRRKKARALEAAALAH
Sequence of Hepatocyte growth factor receptor (Homo sapiens) (P08581 whole entry, the tested form may be a part): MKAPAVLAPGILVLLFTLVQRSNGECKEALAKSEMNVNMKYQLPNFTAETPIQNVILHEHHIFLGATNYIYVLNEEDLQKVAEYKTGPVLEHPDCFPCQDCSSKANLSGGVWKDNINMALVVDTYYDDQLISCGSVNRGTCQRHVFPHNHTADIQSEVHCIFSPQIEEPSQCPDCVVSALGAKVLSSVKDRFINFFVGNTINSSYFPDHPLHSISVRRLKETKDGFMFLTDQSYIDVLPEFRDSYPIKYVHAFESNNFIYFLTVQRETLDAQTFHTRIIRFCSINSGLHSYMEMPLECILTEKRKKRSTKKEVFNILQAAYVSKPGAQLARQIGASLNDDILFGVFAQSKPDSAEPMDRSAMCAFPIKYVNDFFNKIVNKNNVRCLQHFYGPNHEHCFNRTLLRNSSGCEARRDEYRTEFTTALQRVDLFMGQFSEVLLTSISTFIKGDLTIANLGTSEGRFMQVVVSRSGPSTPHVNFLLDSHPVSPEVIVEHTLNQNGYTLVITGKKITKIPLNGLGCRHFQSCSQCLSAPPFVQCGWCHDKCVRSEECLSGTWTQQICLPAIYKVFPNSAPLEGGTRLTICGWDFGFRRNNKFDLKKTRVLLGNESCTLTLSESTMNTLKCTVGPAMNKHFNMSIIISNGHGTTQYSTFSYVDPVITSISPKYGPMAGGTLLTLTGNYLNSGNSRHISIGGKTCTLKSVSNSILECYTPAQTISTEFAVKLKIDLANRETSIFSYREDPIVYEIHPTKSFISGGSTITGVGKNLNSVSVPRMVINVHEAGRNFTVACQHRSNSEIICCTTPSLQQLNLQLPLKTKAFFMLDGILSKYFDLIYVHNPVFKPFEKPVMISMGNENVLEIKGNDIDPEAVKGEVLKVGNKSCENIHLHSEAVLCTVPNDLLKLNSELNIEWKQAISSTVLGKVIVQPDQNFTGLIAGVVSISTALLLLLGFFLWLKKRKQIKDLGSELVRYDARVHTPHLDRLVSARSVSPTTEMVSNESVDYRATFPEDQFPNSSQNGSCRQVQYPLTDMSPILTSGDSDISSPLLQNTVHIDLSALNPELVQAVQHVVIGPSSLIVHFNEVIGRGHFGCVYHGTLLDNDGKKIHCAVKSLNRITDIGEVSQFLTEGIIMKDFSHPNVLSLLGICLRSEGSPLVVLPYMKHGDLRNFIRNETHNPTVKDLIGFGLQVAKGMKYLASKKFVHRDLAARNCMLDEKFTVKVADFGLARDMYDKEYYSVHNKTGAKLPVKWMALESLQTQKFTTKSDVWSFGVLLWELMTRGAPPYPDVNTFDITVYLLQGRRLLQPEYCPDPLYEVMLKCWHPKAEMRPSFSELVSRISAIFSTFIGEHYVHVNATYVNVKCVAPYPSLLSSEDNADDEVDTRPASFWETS

Structure (SMILES): NCC1CN(c2ncnc3[nH]c4cnccc4c23)CCO1 (stereo unspecified)
- inhibition [1]: 31.5%
- inhibition [2]: 0%

Structure (SMILES): NCCc1ccc(-c2ncnc3[nH]cnc23)cc1
- inhibition [3]: 54%

Structure (SMILES): NC1(Cc2ccc(Cl)cc2)CCN(c2ncnc3[nH]ccc23)CC1
- inhibition [4]: 34%

Structure (SMILES): C[C@H](CN(C)C)Oc1nc(Nc2cc3cccc(Cl)c3cn2)cnc1C#N
- inhibition [5]: 9.5%
- inhibition [6]: 0%

Structure (SMILES): COC(=O)c1cnc(Nc2cnc(C#N)cn2)cc1NCC1CCNCC1
- inhibition [7]: 5.5%

Structure (SMILES): c1nc(N2CCOCC2)c2nc[nH]c2n1
- inhibition [8]: 41.5%
- inhibition [9]: 95.5%

Structure (SMILES): CNCc1ccc(-c2ncnc3[nH]cnc23)cc1
- inhibition [10]: 38%
- inhibition [11]: 6.5%

Structure (SMILES): Clc1ccc(C2(c3ccc(-c4ncnc5[nH]cnc45)cc3)CCNCC2)cc1
- inhibition [12]: 10.5%

Structure (SMILES): NC1CCN(c2ncnc3[nH]ccc23)CC1
- inhibition [13]: 17%
- inhibition [14]: 34.5%

Structure (SMILES): NCC1CCN(c2ncnc3[nH]ccc23)CC1
- inhibition [15]: 2.5%

Structure (SMILES): c1cnc2[nH]ccc2c1
- inhibition [16]: 0%
